{"source": "ChEMBL document CHEMBL3885881", "about": "“DrugMatrix”", "species_on_record": "Rattus norvegicus", "assay": "DrugMatrix - Regimen: Daily Repeat", "format": "toxicity, organism-based, Sprague-Dawley", "parameters": "regimen Daily Repeat, gender Male, age 6-8 weeks", "details": "in vivo, po, 50 mg/kg, route oral GAVAGE, dose level Low, […]; for ABSOLUTE BASOPHIL / ABSOLUTE EOSINOPHIL / ABSOLUTE LYMPHOCYTE / ABSOLUTE MONOCYTE / ABSOLUTE SEGMENTED NEUTROPHIL / BASOPHIL / EOSINOPHIL / ERYTHROCYTE COUNT / HEMATOCRIT / HEMOGLOBIN / LEUKOCYTE COUNT / LYMPHOCYTE / MEAN CORPUSCULAR HEMOGLOBIN / MEAN CORPUSCULAR HEMOGLOBIN CONCENTRATION / MEAN CORPUSCULAR VOLUME / MONOCYTE / NEUTROPHIL / NUCLEATED RED BLOOD CELLS / PLATELET COUNT: tissue Blood; for ALANINE AMINOTRANSFERASE / ALBUMIN / ALKALINE PHOSPHATASE / ASPARTATE AMINOTRANSFERASE / BLOOD UREA NITROGEN / CARBON DIOXIDE / CHLORIDE / CHOLESTEROL / CREATINE PHOSPHOKINASE / CREATININE / GLUCOSE / LACTATE DEHYDROGENASE / LIPASE / PHOSPHORUS / POTASSIUM / SODIUM / TOTAL BILIRUBIN / TOTAL PROTEIN / URIC ACID: tissue Plasma"}
{"compound": "COC(=O)Nc1nc2ccc(Sc3ccccc3)cc2[nH]1", "note": "[FENBENDAZOLE]", "values": [{"measurement": "ABSOLUTE BASOPHIL", "setting": "72 h, time 3 day", "value": 0, "unit": "CELLS/uL"}, {"measurement": "ABSOLUTE EOSINOPHIL", "setting": "72 h, time 3 day", "value": 0, "unit": "CELLS/uL"}, {"measurement": "ABSOLUTE LYMPHOCYTE", "setting": "72 h, time 3 day", "value": 13096, "unit": "CELLS/uL"}, {"measurement": "ABSOLUTE MONOCYTE", "setting": "72 h, time 3 day", "value": 168.67, "unit": "CELLS/uL"}, {"measurement": "ABSOLUTE SEGMENTED NEUTROPHIL", "setting": "72 h, time 3 day", "value": 1268.67, "unit": "CELLS/uL"}, {"measurement": "BASOPHIL", "setting": "72 h, time 3 day", "value": 0, "unit": "%"}, {"measurement": "EOSINOPHIL", "setting": "72 h, time 3 day", "value": 0, "unit": "%"}, {"measurement": "ERYTHROCYTE COUNT", "setting": "72 h, time 3 day", "value": 5.64, "unit": "x10E6/uL"}, {"measurement": "HEMATOCRIT", "setting": "72 h, time 3 day", "value": 35.13, "unit": "%"}, {"measurement": "HEMOGLOBIN", "setting": "72 h, time 3 day", "value": 13.37, "unit": "G/DL"}, {"measurement": "LEUKOCYTE COUNT", "setting": "72 h, time 3 day", "value": 14.53, "unit": "x10E3/uL"}, {"measurement": "LYMPHOCYTE", "setting": "72 h, time 3 day", "value": 90.33, "unit": "%"}, {"measurement": "MEAN CORPUSCULAR HEMOGLOBIN", "setting": "72 h, time 3 day", "value": 23.7, "unit": "pg"}, {"measurement": "MEAN CORPUSCULAR HEMOGLOBIN CONCENTRATION", "setting": "72 h, time 3 day", "value": 38.07, "unit": "G/DL"}, {"measurement": "MEAN CORPUSCULAR VOLUME", "setting": "72 h, time 3 day", "value": 62.37, "unit": "fL"}, {"measurement": "MONOCYTE", "setting": "72 h, time 3 day", "value": 1, "unit": "%"}, {"measurement": "NEUTROPHIL", "setting": "72 h, time 3 day", "value": 8.67, "unit": "%"}, {"measurement": "NUCLEATED RED BLOOD CELLS", "setting": "72 h, time 3 day", "value": "0 /100WBC"}, {"measurement": "PLATELET COUNT", "setting": "72 h, time 3 day", "value": 1087, "unit": "x10E3/uL"}, {"measurement": "ALANINE AMINOTRANSFERASE", "setting": "72 h, time 3 day", "value": 79, "unit": "u/L"}, {"measurement": "ALBUMIN", "setting": "72 h, time 3 day", "value": 4.07, "unit": "G/DL"}, {"measurement": "ALKALINE PHOSPHATASE", "setting": "72 h, time 3 day", "value": 536.67, "unit": "u/L"}, {"measurement": "ASPARTATE AMINOTRANSFERASE", "setting": "72 h, time 3 day", "value": 137.67, "unit": "u/L"}, {"measurement": "BLOOD UREA NITROGEN", "setting": "72 h, time 3 day", "value": 15, "unit": "mg/dL"}, {"measurement": "CARBON DIOXIDE", "setting": "72 h, time 3 day", "value": 27.33, "unit": "mmol/L"}, {"measurement": "CHLORIDE", "setting": "72 h, time 3 day", "value": 99.33, "unit": "MEQ/L"}, {"measurement": "CHOLESTEROL", "setting": "72 h, time 3 day", "value": 87.33, "unit": "mg/dL"}, {"measurement": "CREATINE PHOSPHOKINASE", "setting": "72 h, time 3 day", "value": 508.67, "unit": "u/L"}, {"measurement": "CREATININE", "setting": "72 h, time 3 day", "value": 0.16, "unit": "mg/dL"}, {"measurement": "GLUCOSE", "setting": "72 h, time 3 day", "value": 146.33, "unit": "mg/dL"}, {"measurement": "LACTATE DEHYDROGENASE", "setting": "72 h, time 3 day", "value": 359, "unit": "u/L"}, {"measurement": "LIPASE", "setting": "72 h, time 3 day", "value": 10.67, "unit": "u/L"}, {"measurement": "PHOSPHORUS", "setting": "72 h, time 3 day", "value": 13.07, "unit": "mg/dL"}, {"measurement": "POTASSIUM", "setting": "72 h, time 3 day", "value": 6.5, "unit": "MEQ/L"}, {"measurement": "SODIUM", "setting": "72 h, time 3 day", "value": 143.5, "unit": "MEQ/L"}, {"measurement": "TOTAL BILIRUBIN", "setting": "72 h, time 3 day", "value": 0.3, "unit": "mg/dL"}, {"measurement": "TOTAL PROTEIN", "setting": "72 h, time 3 day", "value": 5.6, "unit": "G/DL"}, {"measurement": "URIC ACID", "setting": "72 h, time 3 day", "value": 1.7, "unit": "mg/dL"}, {"measurement": "ABSOLUTE BASOPHIL", "setting": "120 h, time 5 day", "value": 0, "unit": "CELLS/uL"}, {"measurement": "ABSOLUTE EOSINOPHIL", "setting": "120 h, time 5 day", "value": 126, "unit": "CELLS/uL"}, {"measurement": "ABSOLUTE LYMPHOCYTE", "setting": "120 h, time 5 day", "value": 15732, "unit": "CELLS/uL"}, {"measurement": "ABSOLUTE MONOCYTE", "setting": "120 h, time 5 day", "value": 245.33, "unit": "CELLS/uL"}, {"measurement": "ABSOLUTE SEGMENTED NEUTROPHIL", "setting": "120 h, time 5 day", "value": 1830, "unit": "CELLS/uL"}, {"measurement": "BASOPHIL", "setting": "120 h, time 5 day", "value": 0, "unit": "%"}, {"measurement": "EOSINOPHIL", "setting": "120 h, time 5 day", "value": 0.67, "unit": "%"}, {"measurement": "ERYTHROCYTE COUNT", "setting": "120 h, time 5 day", "value": 6.25, "unit": "x10E6/uL"}, {"measurement": "HEMATOCRIT", "setting": "120 h, time 5 day", "value": 37.37, "unit": "%"}, {"measurement": "HEMOGLOBIN", "setting": "120 h, time 5 day", "value": 14.73, "unit": "G/DL"}, {"measurement": "LEUKOCYTE COUNT", "setting": "120 h, time 5 day", "value": 17.93, "unit": "x10E3/uL"}, {"measurement": "LYMPHOCYTE", "setting": "120 h, time 5 day", "value": 88, "unit": "%"}, {"measurement": "MEAN CORPUSCULAR HEMOGLOBIN", "setting": "120 h, time 5 day", "value": 23.57, "unit": "pg"}, {"measurement": "MEAN CORPUSCULAR HEMOGLOBIN CONCENTRATION", "setting": "120 h, time 5 day", "value": 39.43, "unit": "G/DL"}, {"measurement": "MEAN CORPUSCULAR VOLUME", "setting": "120 h, time 5 day", "value": 59.83, "unit": "fL"}, {"measurement": "MONOCYTE", "setting": "120 h, time 5 day", "value": 1.33, "unit": "%"}, {"measurement": "NEUTROPHIL", "setting": "120 h, time 5 day", "value": 10, "unit": "%"}, {"measurement": "NUCLEATED RED BLOOD CELLS", "setting": "120 h, time 5 day", "value": "0 /100WBC"}, {"measurement": "PLATELET COUNT", "setting": "120 h, time 5 day", "value": 1051.67, "unit": "x10E3/uL"}, {"measurement": "ALANINE AMINOTRANSFERASE", "setting": "120 h, time 5 day", "value": 164.33, "unit": "u/L"}, {"measurement": "ALBUMIN", "setting": "120 h, time 5 day", "value": 4.1, "unit": "G/DL"}, {"measurement": "ALKALINE PHOSPHATASE", "setting": "120 h, time 5 day", "value": 601.67, "unit": "u/L"}, {"measurement": "ASPARTATE AMINOTRANSFERASE", "setting": "120 h, time 5 day", "value": 203.67, "unit": "u/L"}, {"measurement": "BLOOD UREA NITROGEN", "setting": "120 h, time 5 day", "value": 13.67, "unit": "mg/dL"}, {"measurement": "CARBON DIOXIDE", "setting": "120 h, time 5 day", "value": 26.33, "unit": "mmol/L"}, {"measurement": "CHLORIDE", "setting": "120 h, time 5 day", "value": 99.33, "unit": "MEQ/L"}, {"measurement": "CHOLESTEROL", "setting": "120 h, time 5 day", "value": 85.33, "unit": "mg/dL"}, {"measurement": "CREATINE PHOSPHOKINASE", "setting": "120 h, time 5 day", "value": 602.33, "unit": "u/L"}, {"measurement": "CREATININE", "setting": "120 h, time 5 day", "value": 0.19, "unit": "mg/dL"}, {"measurement": "GLUCOSE", "setting": "120 h, time 5 day", "value": 143.67, "unit": "mg/dL"}, {"measurement": "LACTATE DEHYDROGENASE", "setting": "120 h, time 5 day", "value": 615.33, "unit": "u/L"}, {"measurement": "LIPASE", "setting": "120 h, time 5 day", "value": 11, "unit": "u/L"}, {"measurement": "PHOSPHORUS", "setting": "120 h, time 5 day", "value": 11.27, "unit": "mg/dL"}, {"measurement": "POTASSIUM", "setting": "120 h, time 5 day", "value": 6.24, "unit": "MEQ/L"}, {"measurement": "SODIUM", "setting": "120 h, time 5 day", "value": 142.9, "unit": "MEQ/L"}, {"measurement": "TOTAL BILIRUBIN", "setting": "120 h, time 5 day", "value": 0.27, "unit": "mg/dL"}, {"measurement": "TOTAL PROTEIN", "setting": "120 h, time 5 day", "value": 5.6, "unit": "G/DL"}, {"measurement": "URIC ACID", "setting": "120 h, time 5 day", "value": 2.17, "unit": "mg/dL"}]}
